The text below walks through data of US20260356984A1, “DNA-AFFIBODY-DRUG NANOSTRUCTURES FOR INHIBITING TRIPLE NEGATIVE BREAST CANCER GROWTH AND METASTASIS” (ARIZONA BOARD OF REGENTS ON BEHALF OF ARIZONA STATE …, priority 2022, published 2026).

Experiment [1] has as its system MB231 breast cancer cells. Description: Transwell migration assay. The note with it: 500 nM THZ1; 24 h; p<0.001. The format is cell-based. As for the experimental part: (§1) FIGS. 5A-5E. Migration assays for MB231 breast cancer cells. (A) without drug treatment; (B) treatment with THZ1; (C) treatment with nanostructure I; (D) Migration rate of MB231 (migrated cell numbers/control cell numbers×100%) (p<0.001); (E) Invasion rate of MB231 (invaded cell numbers/control cell numbers×100%) (p<0.001).
Migration assay: To verify whether nanostructure I blocks TNBC cell dissociation from aggregated cell clusters, a Transwell™ migration assay was performed. […] Since nanostructure I contains the same amount of THZ1, the enhanced inhibition of migration by nanostructure I is attributed to its ability to crosslink the cells. As a negative control, the migration of HER1 negative BT474 BC cells were not inhibited by I (FIG. 6A).

The test system of a further experiment is MB231 cancer cells. Description: Invasion assay (matrigel treated Transwell). The format is cell-based. To be noted: 500 nM THZ1; 24 h; p<0.001. The procedure: as §1
Invasion assay: To verify whether nanostructure I blocks cells from passing through vessel walls, an invasion assay was performed using a matrigel matrix treated Transwell™ to mimic the vessel wall. […] As a negative control, the invasion of HER1 negative BT474 BC cells were not affected by I (FIG. 6B).

In experiment [2] the test system is double-strand linear DNA (20 bp, 40 bp and 60 bp). Description: Linear double-strand DNA binding to THZ1 (1% agarose gel). The note with it: 40-160 mM THZ1. As for the experimental part: FIG. 9. Verification of linear DNA binding to THZ1. Double-strand linear DNAs were mixed with different amounts of THZ1 and loaded on 1% agarose gel. The gels were run at 150 V for 20 min, and stained with EtBr.
Binding of DNA to THZ1 was evaluated (FIG. 9). Double-strand linear DNAs (20 bp, 40 bp and 60 bp) were prepared by mixing two complimentary DNAs (as listed below) in 50 mM Tris-HCl, pH 7.5, containing 50 mM NaCl. The reaction mixtures were heated at 90 °C for 5 min, then cool to room temperature. To keep the same base-pair number for each same, the 20 bp DNA was adjusted to 2 mM; 40 bp DNA was adjusted to 1 mM; 60 bp DNA was adjusted to 0.67 mM. Then 40-160 mM THZ1 were added to each sample and loaded on 1% agarose gel.

In the next experiment the test system is MDA-MB-231 cells. Description: Crosslinking assay of HER1 overexpressing TNBC cells. The note with it: 500 nM free THZ1; 24 h. The class given is cell-based. The procedure:
(§2) FIGS. 4A-4H. Crosslinking of BC cells induced by I. MB-231 cells without drug treatment (A, D); with 500 nM THZ1 (B, E); with 10 nM I (C, F) were incubated 24 h and 48 h, respectively. (G) Calculated crosslinking efficiency of MB-231 cells in the presence of 10 nM I in 24 h (p<0.001); (H) Calculated crosslinking efficiency of BT474 cells in the presence of 10 nM I in 24 h.
(§3) Crosslinking assay: Crosslinking of TNBC cells by I was verified using a HER1 overexpressing TNBC cell line (MDA-MB-23146). In the presence of nanostructure I (containing 50 copies of THZ1), the cells were effectively crosslinked to each other through multiple ZHER1-HER1 bindings. […] The crosslinking efficiency was up to 96% in 24 h (FIG. 4G). [Crosslinking efficiency (%)=(cell number without any treatment-non-aggregated cell number)× 100%/(cell number without any treatment). Data were reported as the mean of three independent experiments].

Another experiment deals with DNA tetrahedron. Description: DNA-THZ1 binding assay (G-25 column, UV absorption 220 nm). As for the experimental part:
FIGS. 3A-3B. DNA-THZ1 binding assay. (A) Analysis of binding ratio of THZ1 to DNA tetrahedron using UV absorption of THZ1 (220 nm). DNA tetrahedron (0.2 μM) was added different amounts of THZ1 (2-12 μM). The unbound THZ1 was removed through a Sephadex G-25 column for the detection samples. (B) Analysis of THZ1 binding to DNA tetrahedron (TH)-4ZHER1 using 1% agarose gel electrophoresis. The gel was run at 110 V for 1 h, and stained with ethidium bromide. Lanes 1-5, […] DNA tetrahedron (TH)-4ZHER1 incubated with 0-200 folds of THZ1.
DNA-THZ1 binding assay: The DNA binding property of THZ1 was evaluated following our reported method.^43 DNA tetrahedron was incubated with 10-60 fold of THZ1. After purification with G-25 column to remove unbound THZ1, the amount of THZ1 in the DNA tetrahedron was measured using UV absorption at 220 nm. […] Then we used a 1% agarose gel to analyze the binding property for high concentrations of THZ1. […] Thus, we used 50-fold of THZ1 to prepare DNA tetrahedron-4ZHER1-THZ1 nanostructure (I) for following assays.

In another experiment the test system is MB-231 cells. Description: Growth/death of MB-231 cells after 48 h incubation. The format is cell-based. To be noted: 500 nM THZ1. As for the experimental part:
as §2, §3

The subject of the next experiment is breast cancer. The note with it: breast cancer patients; cited from earlier work.
A further experiment concerns TNBC. To be noted: employed as a single agent; cited from earlier work.

In turn, `CN(C)C/C=C/C(=O)Nc1ccc(C(=O)Nc2cccc(Nc3ncc(Cl)c(-c4c[nH]c5ccccc45)n3)c2)cc1` [THZ1] displayed an inhibition of migration in experiment [1] of 57%. In the experiment on MB231 cancer cells, this compound gave an inhibition of invasion of 51%. Further, the “binding to double-strand DNA” value in experiment [2] is recorded as “can bind to double-strand DNA”. Also, the cell aggregation result in the experiment on MDA-MB-231 cells was “not aggregated”. The “concentration of THZ1 in DNA tetrahedron” value in the experiment on DNA tetrahedron (0.2 μM DNA tetrahedron, ratio THZ1/DNA tetrahedron 10 to 50, UV 220 nm after G-25 column) is given as “increased linearly”. For the same compound, in the experiment on DNA tetrahedron (ratio THZ1/DNA tetrahedron 60), the “passage of THZ1/DNA complex through G-25 column” value is recorded as “part of THZ1/DNA complex did not pass through the G-25 column”. In addition, the cell growth entry with MB-231 cells is listed as “partially growth inhibited”.

“Patritumab deruxtecan: HER3 antibody drug conjugate”: in the experiment on breast cancer, the clinical activity entry was “early and clinically meaningful activity”.

Regarding “panitumumab: Anti-HER1 monoclonal antibody”, in the experiment with TNBC, the “benefit to TNBC patients” value is listed as “neither antibody confers significant benefit to TNBC patients”.
